Experimental data taken from patent EP0770606A1, “Cis-epoxide derivate useful as irreversible HIV protease inhibitor and process for its preparation” (LG Chemical Limited, priority 1995, dated 1997).

Columns and labels:
[1] = tested on: HIV-1; assay: Anti-viral activity: inhibition of HIV proliferation in H9 (reverse transcriptase activity) and Sup T1 (syncytium formation) cell lines; format: cell-based; conditions: concentration at which the proliferation of HIV is inhibited by 50%, H9 or Sup T1 cells, cell line not stated
Description: 1 x 10^5 cells of each of H9(ATCC HTB 176) and Sup T1 cell lines were added to the wells of a 24-well microtiter plate and the compound of the present invention was added thereto in various concentrations. 200 TCID50(200-fold of 50% tissue culture infection dose) of HIV-1 inoculum and rpmi-1640 medium(Sigma Chemical Co., U.S.A) were added successively to the wells and the plate was incubated at 37°C. In case of Sup T1, the number of syncytium formed was investigated after 3 to 9 days.
In the case of H9, three-quarters(3/4) of the culture medium was refreshed every 3 days. After 9 days, 6ml of the culture fluid was centrifuged at 1000rpm for 10 minutes. To 5ml of the resulting supernatant were added 2.5ml of 30% polyethylene glycol(PEG, M.W. 6000-8000) and 0.4M NaCl. The resulting solution was allowed to stand at 0°C overnight to precipitate virus particles. The solution was centrifuged at 2000rpm for 45 minutes, the supernatant was discarded therefrom and the precipitate was diluted with 20ml of a reverse transcriptase suspension buffer(50mM tris-HCl(Sigma), pH 7.5, 1mM dithiothreitol, 20% glycerol, 0.25M KCl and 0.25% Triton X-100). The resulting suspension was stored in an Effendorf tube at -70°C until use. A cycle of freezing the above virus suspension for 2 minutes in dry ice and thawing it at 37°C for 2 minutes was repeated three times and the resulting suspension was centrifuged at 4°C. The resulting supernatant was used in carrying out the reverse transcriptase assay.
10µl of the above virus suspension was added to a solution prepared by mixing: 10µl of buffer solution(250mM tris-HCl, pH 7.5, 37.5mM MgCl2, 0.25% triton X-100), 1.2µl of 200mM dithiothreitol, 5µl of 10µM oligo(dT)-poly(A)(Boeringer Mannheim, 12-18 oligomer), 1µl(1µCi) of ^3H-TTP(thymidinetriphosphate) and 23.6µl of water; and the resulting mixture was kept at 37°C. […] The amount of radioactivity was counted using a liquid scintillation counter.

[2] = Cytotoxicity by trypan blue dye exclusion; format: cell-based; conditions: human, h9 or sup t1 cells; concentration at which 50% of the cells die; 0.1µM to 100µM tested; cell line not stated; read-out: CT50 (the source's name)
Description: (§1) To determine the cytotoxicity of the compound of the present invention, 0.1µM to 100µM of the compound was added to H9 cell or Sup T1 cell and the mixture was cultured on a rpmi-1640 medium at 37°C. The medium was refreshed every 3 days and the extent of cell proliferation was observed using Hemacytometer according to the trypan blue dye exclusion technique which is well known in the art. CT50(i.e., the concentration at which 50% of the cells die) was determined.

[3] = molecular target: T1, HIV-1 protease (Human immunodeficiency virus type 1 group M subtype B, UniProt P04585); format: biochemical; conditions: KINSIM/FITSIM analysis
T1 construct: adding 2.6nM of HIV-1 protease to the preincubation solution
Description: To a buffer solution comprising 50mM sodium acetate, pH 5.5, 1mM dithiothreitol(DTT), 1mM ethylenediaminetetraacetate (EDTA), 0.75M ammonium sulfate and 0.1% NP40(NONIDET P-40; Sigma Chemical Co., U.S.A.), was added a pre-determined amount of the compound obtained in Example to prepare a preincubation solution having a known concentration of the compound. The inhibition reaction was initiated by adding 2.6nM of HIV-1 protease to the preincubation solution. 10µl samples of the reaction solution were taken at a given time interval and each sample was added to 80µl of assay solution containing 100µM of reaction substrate in the same buffer solution as above to assay for the residual enzyme activity. […] The reaction rate was determined by subjecting both the substrate before the reaction and the product after the reaction to HPLC separation and then measuring the amount of the product relative to the substrate, using the strong absorbance of (p-NO2)-Phe at 280nm. The decrease in the enzyme activity with time was measured for each sample and the natural logarithmic values(ln) of the data points in a given experiment were plotted against time to obtain a linear correlation line. kobs was then calculated from the slope of the line.
The inhibition constant was calculated according to the following equation: (1)/(kobs)=(1)/(kina)+(KI)/(kina)(1)/([I]) [formula] wherein: kobs is a rate constant representing the rate of decrease in enzyme activity in the presence of the inhibitor, kina is a rate constant representing the rate of the irreversible covalent bond formation between the enzyme and the inhibitor (in Michaelis-Menten complex), KI is an inhibition constant represented by the equilibrium constant for the formation of the Michaelis-Menten complex from an enzyme and an inhibitor, and [I] designates the inhibitor concentration.
The inhibition constants KI, the rate constant kina and the second order rate constant kina/KI were tabulated by inputting the value of [E]/([E]+[EI]+[EI'] [formula] ) into KINSIM/FITSIM program.

[4] = tested on: H9 cell or Sup T1 cell; assay: Cytotoxicity by trypan blue dye exclusion; format: cell-based; conditions: human, h9 or sup t1 cells
Description: as §1

Molecule | IC50 [1] [nM] | IC50 ([1]; Human immunodeficiency virus 1) [nM] | CC50 [2] [nM] | Ki ([3]; inhibition constant, 2.6nM HIV-1 protease, pH 5.5) [nM] | kina ([3]; rate constant of irreversible covalent bond formation between enzyme and inhibitor) [min⁻¹] | kina/KI ([3]; second order rate constant) | CC50 [4] [nM]
CC(C)c1nc(CN(C)C(=O)N[C@H](C(=O)N[C@@H](Cc2ccccc2)C[C@H](O)[C@H](Cc2ccccc2)NC(=O)OCc2cncs2)C(C)C)cs1 [ABI-538] | 53 |  |  |  |  |  | 
CC(C)(C)NC(=O)[C@@H]1CN(Cc2cccnc2)CCN1C[C@@H](O)C[C@@H](Cc1ccccc1)C(=O)N[C@H]1c2ccccc2C[C@H]1O [MK-639, reference compound] |  | 10 | 10000 |  |  |  | 
[(5S)-[(N-isopropyloxycarbonyl)-β-methanesulfonyl-L-valinyl]amino]-(4R, 3S)-epoxy-6-phenyl-1-hexanoyl]-[(2S)-(1-phenyl-3-methyl-1-oxo)butylamino]amide [compound of the present invention] | 15 |  |  | 12 | 3.2 | 2.7 x 10^7 min^-1M^-1 | 10000
